Measurements taken from patent US10005739B2, “Quinazolinone and isoquinolinone derivative” (CHUGAI SEIYAKU KABUSHIKI KAISHA, priority 2013, dated 2018).

These molecules were tested against DDR1 (Homo sapiens (Human), UniProt Q08345) (assay: Measurement of DDR1 enzyme inhibitory activity (phosphorylation of biotinylated peptide, time-resolved fluorescence)). Details: human DDR1 enzyme, biotinylated peptide phosphorylation; read-out: DDR1 enzyme inhibition assay IC50.
Type: biochemical
Protocol: 1. Measurement of DDR1 Enzyme Inhibitory Activity
The DDR1 enzyme inhibitory activity was determined with human DDR1 enzyme prepared using the baculovirus expression system, based on the inhibitory activity of phosphorylation of a biotinylated peptide ([…]) by the enzyme. The phosphorylated biotinylated peptide was detected using time-resolved fluorescence, with an anti-phosphorylated tyrosine antibody conjugated with europium cryptate and streptavidin conjugated with XL665 which is a derivative of allophycocyanin.

Chain of DDR1 (Q08345 19-913): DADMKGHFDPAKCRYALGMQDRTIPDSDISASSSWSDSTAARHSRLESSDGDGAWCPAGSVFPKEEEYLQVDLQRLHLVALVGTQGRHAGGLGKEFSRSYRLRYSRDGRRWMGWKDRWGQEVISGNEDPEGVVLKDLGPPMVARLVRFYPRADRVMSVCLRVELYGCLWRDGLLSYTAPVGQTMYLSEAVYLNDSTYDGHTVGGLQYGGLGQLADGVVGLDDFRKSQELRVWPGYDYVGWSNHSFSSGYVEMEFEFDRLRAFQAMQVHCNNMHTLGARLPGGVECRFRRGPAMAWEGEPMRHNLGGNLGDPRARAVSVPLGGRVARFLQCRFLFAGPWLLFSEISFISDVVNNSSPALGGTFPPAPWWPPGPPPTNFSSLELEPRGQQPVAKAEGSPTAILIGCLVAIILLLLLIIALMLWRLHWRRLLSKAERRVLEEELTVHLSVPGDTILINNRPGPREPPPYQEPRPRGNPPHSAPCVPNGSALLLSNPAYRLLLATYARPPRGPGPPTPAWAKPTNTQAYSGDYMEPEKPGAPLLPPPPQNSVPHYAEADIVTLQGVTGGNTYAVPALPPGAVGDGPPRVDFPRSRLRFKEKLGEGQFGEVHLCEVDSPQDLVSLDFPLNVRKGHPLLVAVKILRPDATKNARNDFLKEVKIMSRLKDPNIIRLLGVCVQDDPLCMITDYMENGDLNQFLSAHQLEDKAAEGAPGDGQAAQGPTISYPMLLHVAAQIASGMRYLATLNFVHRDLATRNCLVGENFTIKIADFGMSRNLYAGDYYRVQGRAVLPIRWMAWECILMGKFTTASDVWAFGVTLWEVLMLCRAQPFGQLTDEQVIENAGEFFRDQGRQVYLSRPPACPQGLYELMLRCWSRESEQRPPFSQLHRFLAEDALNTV

**Q.** CCS(=O)(=O)c1cc(Cl)c(C#N)cc1Nn1cnc2ccc(C(F)(F)F)cc2c1=O [Compound C-43, 2-Chloro-4-ethylsulfonyl-5-[[4-oxo-6-(trifluoromethyl)quinazolin-3-yl]amino]benzonitrile] was tested. Which IC50 did it give?
**A.** Its IC50 is 330 nM.

**Q.** For CCS(=O)(=O)c1ccc(Cl)cc1Nn1cnc2ccc(SC)cc2c1=O [Compound A-66, 3-(5-Chloro-2-ethylsulfonylanilino)-6-methylsulfanylquinazolin-4-one], which IC50 is on record?
**A.** The IC50 was 52 nM.

**Q.** CCSc1ccc(Cl)cc1Nn1cnc2ncc(C(F)(F)F)cc2c1=O [Compound A-23, 3-(5-Chloro-2-ethylsulfanylanilino)-6-(trifluoromethyl)pyrido[2,3-d]pyrimidin-4-one] was tested. Which IC50 did it give?
**A.** Its IC50 is 160 nM.

**Q.** For CCSc1ccc(Cl)cc1Nn1cnc2ccc(OC)cc2c1=O [Compound A-34, 3-(5-Chloro-2-ethylsulfanylanilino)-6-methoxyquinazolin-4-one], which IC50 is on record?
**A.** The IC50 was 68 nM.

**Q.** With CCS(=O)(=O)c1ccc(Cl)cc1Nn1cnc2c(Br)cc(C)cc2c1=O [Compound A-2, 8-Bromo-3-(5-chloro-2-ethylsulfonylanilino)-6-methylquinazolin-4-one] as the molecule, how does the IC50 read?
**A.** Its IC50 is 40 nM.

**Q.** With Cc1cc(Br)c2ncn(Nc3cc(Cl)ccc3S(C)(=O)=O)c(=O)c2c1 [Compound B-2, 8-Bromo-3-(5-chloro-2-methylsulfonylanilino)-6-methylquinazolin-4-one] as the molecule, how does the IC50 read?
**A.** Its IC50 is 160 nM.

**Q.** How did the IC50 turn out when CCSc1ccc(Cl)cc1Nn1cnc2cnc(Cl)cc2c1=O [Compound A-14, 6-Chloro-3-(5-chloro-2-ethylsulfanylanilino)pyrido[3,4-d]pyrimidin-4-one] was run?
**A.** The IC50 was 130 nM.

**Q.** Which IC50 does the source give for CCS(=O)(=O)c1ccc(Cl)cc1Nn1cnc2ccc(N)cc2c1=O [Compound A-58, 6-Amino-3-(5-chloro-2-ethylsulfonylanilino)quinazolin-4-one] here?
**A.** Its IC50 is 4050 nM.

**Q.** With CCSc1ncc(Cl)cc1Nn1cnc2c(Br)cc(C)cc2c1=O [Compound D-4, 8-Bromo-3-[(5-chloro-2-ethylsulfanylpyridin-3-yl)amino]-6-methylquinazolin-4-one] as the molecule, how does the IC50 read?
**A.** The IC50 was 580 nM.

**Q.** Which IC50 does the source give for CCS(=O)(=O)c1ccc(F)cc1Nn1cnc2c(Br)cc(C(F)(F)F)cc2c1=O [Compound C-22, 8-Bromo-3-(2-ethylsulfonyl-5-fluoroanilino)-6-(trifluoromethyl)quinazolin-4-one] here?
**A.** Its IC50 is 300 nM.

**Q.** For CCSc1ccc(Cl)cc1Cn1cnc2ccc(C(F)(F)F)cc2c1=O [Compound E-15, 3-[(5-Chloro-2-ethylsulfanylphenyl)methyl]-6-(trifluoromethyl)quinazolin-4-one], which IC50 is on record?
**A.** The IC50 was 450 nM.

**Q.** For CCS(=O)(=O)c1ccc(Br)cc1Nn1cnc2c(Br)cc(OC(F)(F)F)cc2c1=O [Compound C-24, 8-Bromo-3-(5-bromo-2-ethylsulfonylanilino)-6-(trifluoromethoxy)quinazolin-4-one], which IC50 is on record?
**A.** Its IC50 is 280 nM.

**Q.** With CCSc1ccc(Cl)cc1Nn1cnc2cc(F)c(F)cc2c1=O [Compound A-30, 3-(5-Chloro-2-ethylsulfanylanilino)-6,7-difluoroquinazolin-4-one] as the molecule, how does the IC50 read?
**A.** Its IC50 is 100 nM.

**Q.** Cc1cc(Br)c2ncn(Nc3cc(Cl)ccc3S(=O)(=O)c3ccccc3)c(=O)c2c1 [Compound B-14, 3-[2-(Benzenesulfonyl)-5-chloroanilino]-8-bromo-6-methylquinazolin-4-one] was tested. Which IC50 did it give?
**A.** The IC50 was 290 nM.

**Q.** With CCSc1cc(Cl)c(Cl)cc1Nn1cnc2ccc(C(F)(F)F)cc2c1=O [Compound C-40, 3-(4,5-Dichloro-2-ethylsulfanylanilino)-6-(trifluoromethyl)quinazolin-4-one] as the molecule, how does the IC50 read?
**A.** The IC50 was 190 nM.

**Q.** For CCS(=O)(=O)c1ccc(Cl)cc1Cn1cnc2c(Br)cc(OC(F)(F)F)cc2c1=O [Compound E-12, 8-Bromo-3-[(5-chloro-2-ethylsulfonylphenyl)methyl]-6-(trifluoromethoxy)quinazolin-4-one], which IC50 is on record?
**A.** Its IC50 is 390 nM.

**Q.** With CCSc1ccc(Cl)cc1Nn1cnc2c(Br)cc(C)cc2c1=O [Compound A-1, 8-Bromo-3-(5-chloro-2-ethylsulfanylanilino)-6-methylquinazolin-4-one] as the molecule, how does the IC50 read?
**A.** The IC50 was 170 nM.

**Q.** With CCS(=O)(=O)c1ccc(Cl)cc1Nn1cnc2ccc([N+](=O)[O-])cc2c1=O [Compound A-57, 3-(5-Chloro-2-ethylsulfonylanilino)-6-nitroquinazolin-4-one] as the molecule, how does the IC50 read?
**A.** The IC50 was 120 nM.

**Q.** With CCSc1ccc(C#N)cc1Nn1cnc2c(Br)cc(OC(F)(F)F)cc2c1=O [Compound C-13] as the molecule, how does the IC50 read?
**A.** The IC50 was 110 nM.

**Q.** Which IC50 does the source give for CCSc1ccc(Cl)cc1Nn1cnc2c(Br)cc(C(F)(F)F)cc2c1=O [Compound A-32, 8-Bromo-3-(5-chloro-2-ethylsulfanylanilino)-6-(trifluoromethyl)quinazolin-4-one] here?
**A.** The IC50 was 290 nM.

**Q.** How did the IC50 turn out when CCS(=O)(=O)c1ccc(Cl)cc1Nn1cnc2cnc(Cl)cc2c1=O [Compound A-15, 6-Chloro-3-(5-chloro-2-ethylsulfonylanilino)pyrido[3,4-d]pyrimidin-4-one] was run?
**A.** The IC50 was 1230 nM.

**Q.** With CCS(=O)(=O)c1ccc(Cl)cc1Cn1cnc2c(Br)c(C)c(Br)cc2c1=O [Compound E-17, 6,8-Dibromo-3-[(5-chloro-2-ethylsulfonylphenyl)methyl]-7-methylquinazolin-4-one] as the molecule, how does the IC50 read?
**A.** The IC50 was 150 nM.

**Q.** How did the IC50 turn out when C=C(C)c1ccc2ncn(Nc3cc(Cl)ccc3S(=O)(=O)CC)c(=O)c2c1 [Compound A-62, 3-(5-Chloro-2-ethylsulfonylanilino)-6-prop-1-en-2-ylquinazolin-4-one] was run?
**A.** The IC50 was 110 nM.

**Q.** How did the IC50 turn out when CC(C)Cc1ccc(Cl)cc1Nn1cnc2ccc(OC(F)(F)F)cc2c1=O [Compound B-19, 3-[5-Chloro-2-(2-methylpropyl)anilino]-6-(trifluoromethoxy)quinazolin-4-one] was run?
**A.** Its IC50 is 330 nM.

**Q.** With CCSc1ccc(OC)cc1Nn1cnc2ccc(OC(F)(F)F)cc2c1=O [Compound C-27, 3-(2-Ethylsulfanyl-5-methoxyanilino)-6-(trifluoromethoxy)quinazolin-4-one] as the molecule, how does the IC50 read?
**A.** The IC50 was 200 nM.

**Q.** CCSc1ccc(Cl)cc1Nn1cnc2ccc(SC)cc2c1=O [Compound A-48, 3-(5-Chloro-2-ethylsulfanylanilino)-6-methylsulfanylquinazolin-4-one] was tested. Which IC50 did it give?
**A.** Its IC50 is 200 nM.

**Q.** How did the IC50 turn out when N#Cc1ccc(Sc2ccccc2)c(Nn2cnc3ccc(C(F)(F)F)cc3c2=O)c1 [Compound B-15, 3-[[4-Oxo-6-(trifluoromethyl)quinazolin-3-yl]amino]-4-phenylsulfanylbenzonitrile] was run?
**A.** Its IC50 is 860 nM.

**Q.** How did the IC50 turn out when CCc1ccc2ncn(Nc3cc(Cl)ccc3S(=O)(=O)CC)c(=O)c2c1 [Compound A-53, 3-(5-Chloro-2-ethylsulfonylanilino)-6-ethylquinazolin-4-one] was run?
**A.** Its IC50 is 180 nM.

**Q.** CCS(=O)(=O)c1cc(Cl)c(Cl)cc1Nn1cnc2ccc(C(F)(F)F)cc2c1=O [Compound C-41, 3-(4,5-Dichloro-2-ethylsulfonylanilino)-6-(trifluoromethyl)quinazolin-4-one] was tested. Which IC50 did it give?
**A.** Its IC50 is 110 nM.

**Q.** Which IC50 does the source give for C#Cc1ccc(SCC)c(Nn2cnc3c(Br)cc(C(F)(F)F)cc3c2=O)c1 [Compound C-36, 8-Bromo-3-(2-ethylsulfanyl-5-ethynylanilino)-6-(trifluoromethyl)quinazolin-4-one] here?
**A.** Its IC50 is 280 nM.

**Q.** CCSc1ccc(Cl)cc1Nn1cnc2ccc(C)cc2c1=O [Compound A-50, 3-(5-Chloro-2-ethylsulfanylanilino)-6-methylquinazolin-4-one] was tested. Which IC50 did it give?
**A.** The IC50 was 57 nM.

**Q.** How did the IC50 turn out when CCSc1ncc(Cl)cc1Nn1cnc2c(Br)cccc2c1=O [Compound D-1, 8-Bromo-3-[(5-chloro-3-ethylsulfanylpyridin-3-yl)amino]quinazolin-4-one] was run?
**A.** The IC50 was 2360 nM.

**Q.** CCS(=O)(=O)c1ccc(Cl)cc1Nn1cnc2ccc(OC)cc2c1=O [Compound A-35, 3-(5-Chloro-2-ethylsulfonylanilino)-6-methoxyquinazolin-4-one] was tested. Which IC50 did it give?
**A.** The IC50 was 95 nM.

**Q.** How did the IC50 turn out when CCSc1ccc(Cl)cc1Nn1cnc2ccc(F)cc2c1=O [Compound A-28, 3-(5-Chloro-2-ethylsulfanylanilino)-6-fluoroquinazolin-4-one] was run?
**A.** Its IC50 is 88 nM.

**Q.** How did the IC50 turn out when CCS(=O)(=O)c1ccc(F)cc1Nn1cnc2c(Br)cc(OC(F)(F)F)cc2c1=O [Compound C-20, 8-Bromo-3-(2-ethylsulfonyl-5-fluoroanilino)-6-(trifluoromethoxy)quinazolin-4-one] was run?
**A.** Its IC50 is 150 nM.

**Q.** How did the IC50 turn out when CCSc1ccc(Cl)cc1Nn1cnc2cc(C)c(Br)cc2c1=O [Compound A-7, 6-Bromo-3-(5-chloro-2-ethylsulfanylanilino)-7-methylquinazolin-4-one] was run?
**A.** The IC50 was 800 nM.

**Q.** For CCS(=O)(=O)c1ccc(Cl)cc1Nn1cnc2ncc(C(F)(F)F)cc2c1=O [Compound A-24, 3-(5-Chloro-2-ethylsulfonylanilino)-6-(trifluoromethyl)pyrido[2,3-d]pyrimidin-4-one], which IC50 is on record?
**A.** The IC50 was 190 nM.

**Q.** CCS(=O)(=O)c1ccc(C#N)cc1Nn1cnc2cc(CN3CCNCC3)c(Br)cc2c1=O [Compound H-41, 3-[[6-Bromo-4-oxo-7-(piperazin-1-ylmethyl)quinazolin-3-yl]amino]-4-ethylsulfonylbenzonitrile] was tested. Which IC50 did it give?
**A.** The IC50 was 250 nM.

**Q.** Which IC50 does the source give for CCCSc1ccc(Cl)cc1Nn1cnc2c(Br)cc(C)cc2c1=O [Compound B-3, 8-Bromo-3-(5-chloro-2-propylsulfanylanilino)-6-methylquinazolin-4-one] here?
**A.** The IC50 was 140 nM.

**Q.** How did the IC50 turn out when CCSc1ccc(Cl)cc1Nn1cnc2cnc(OC)cc2c1=O [Compound A-21, 3-(5-Chloro-2-ethylsulfanylanilino)-6-methoxypyrido[3,4-d]pyrimidin-4-one] was run?
**A.** The IC50 was 270 nM.

**Q.** How did the IC50 turn out when CCSc1ccc(F)cc1Nn1cnc2c(Br)cc(OC(F)(F)F)cc2c1=O [Compound C-19, 8-Bromo-3-(2-ethylsulfanyl-5-fluoroanilino)-6-(trifluoromethoxy)quinazolin-4-one] was run?
**A.** Its IC50 is 340 nM.

**Q.** CCS(=O)(=O)c1ccc(Cl)cc1Nn1cnc2cc(Br)c(C(F)F)cc2c1=O [Compound A-6, 7-Bromo-3-(5-chloro-2-ethylsulfonylanilino)-6-(difluoromethyl)quinazolin-4-one] was tested. Which IC50 did it give?
**A.** Its IC50 is 70 nM.

**Q.** CCSc1ccc(Cl)cc1Nn1cnc2ccc(CC)cc2c1=O [Compound A-52, 3-(5-Chloro-2-ethylsulfanylanilino)-6-ethylquinazolin-4-one] was tested. Which IC50 did it give?
**A.** The IC50 was 200 nM.

**Q.** CCSc1ccc(Cl)cc1Nn1cnc2cc(OC)c(OC)cc2c1=O [Compound A-38, 3-(5-Chloro-2-ethylsulfanylanilino)-6,7-dimethoxyquinazolin-4-one] was tested. Which IC50 did it give?
**A.** Its IC50 is 480 nM.
